The results in this text go back to BindingDB's records for doi:10.1016/j.bmcl.2014.08.028 (Rhône-Poulenc Rorer, 2014).

Broadly, the IC50 is the concentration needed to halve the response being measured.

The experiment can be described thus: Antagonist activity at CRTH2 receptor in human whole blood assessed as inhibition of PGD2-induced eosinophil shape change after 10 mins by fluorescence assay.
`Cc1ccc2c(CC(=O)O)cn(-c3ccc(F)cc3Cc3c(C)cnn3C)c2n1`: the 50% inhibitory concentration (IC50) stood at 6 nM.

Take `Cc1ccc(-n2cc(CC(=O)O)c3ccc(C)nc32)c(Cn2c(C)nnc2C)c1`: the 50% inhibitory concentration (IC50) stood at 1 nM.

As for `Cc1ccc2c(CC(=O)O)cn(-c3ccc(Cl)cc3Cn3c(C)nnc3C3CC3)c2n1`, the 50% inhibitory concentration (IC50) came to 4 nM.

As to `Cc1nnc(C2CC2)n1Cc1cc(C(F)(F)F)ccc1-c1cn(CC(=O)O)c2ccc(F)cc12`, the concentration for half-maximal inhibition (IC50) came to 2 nM.

As to `Cc1nnc(C2CC2)n1Cc1cc(C(F)(F)F)ccc1-n1cc(CC(=O)O)c2ccc(F)cc21`, the IC50 was found to be 7 nM.

As for `Cc1ccc2c(CC(=O)O)cn(-c3ccc(Cl)cc3Cn3c(C)nnc3Cc3ccccc3)c2n1`, the half-inhibitory concentration (IC50) was 2 nM.

On to `Cc1ccc2c(CC(=O)O)cn(-c3ccc(Cl)cc3Cn3c(C)nnc3CCc3ccccc3)c2n1`, for which the IC50 turned out to be 5 nM.

Consider `Cc1noc(C2CC2)c1Cc1cc(F)ccc1-c1cn(CC(=O)O)c2ccc(C(F)(F)F)cc12`, for which the half-inhibitory concentration (IC50) amounted to 16 nM.

With `Cc1ccn2c(CC(=O)O)cc(-c3ccc(C(F)(F)F)cc3Cc3c(C)noc3C3CC3)c2n1`, the half-maximal inhibitory concentration (IC50) was 26 nM.

In the case of `Cc1noc(C2CC2)c1Cc1cc(C(F)(F)F)ccc1-c1cn(CC(=O)O)c2ccc(C(F)(F)F)nc12`, the IC50 was 54 nM.

For the compound `Cc1ccc2c(CC(=O)O)cn(-c3ccc(F)cc3Cc3c(C)noc3C3CC3)c2n1`, the concentration for half-maximal inhibition (IC50) is 1 nM.

On to `Cc1ccc2c(CC(=O)O)cn(-c3ccc(C(F)(F)F)cc3Cc3c(C)noc3C3CC3)c2n1`, for which the IC50 came out at 5 nM.

On to `Cc1ccc2c(CC(=O)O)cn(-c3ccc(C(F)(F)F)cc3Cc3c(C4CC4)noc3C3CC3)c2n1`, for which the concentration for half-maximal inhibition (IC50) was 60 nM.

As to `Cc1ccc2c(CC(=O)O)cn(-c3ccc(Cl)cc3Cc3c(C4CC4)noc3C3CC3)c2n1`, the IC50 was determined as 10 nM.
